According to patent US20070027079A1, “GHRP 2 strips” (priority 2005, published 2007):
Where a SMILES comes first, the peptide text is derived from it. [ ]: non-standard residue; d: D form. d2Nal = N[C@H](Cc1ccc2ccccc2c1)C(=O)O

Assay: Certificate of analysis GHRP-2: solubility
Type: physicochemical
Conditions: specification: soluble in water and 1% acetic acid at a concentration of ≧1 mg/ml to give a clear, colorless solution; batch 6P-20030403

With `C[C@H](NC(=O)[C@@H](Cc1ccc2ccccc2c1)NC(=O)[C@@H](C)N)C(=O)N[C@@H](Cc1c[nH]c2ccccc12)C(=O)N[C@H](Cc1ccccc1)C(=O)N[C@@H](CCCCN)C(N)=O` [GHRP-2, D-Ala-D-Nal-Ala-Trp-D-Phe-Lys-NH2] (H-[dA][d2Nal]AW[dF]K-NH2) the Solubility was “Complies”.
